Laboratory results taken from PMC12356528, “Modular Synthetic Platform for the Elaboration of Fragments in Three Dimensions for Fragment-Based Drug Discovery” (Journal of the American Chemical Society, 2025).
In brackets after ≈: the same amount, converted by molar mass. Where two headings read alike, the source gives them in different places.

How the values were obtained:
[1] = DMPK Wave1: lipophilicity (measured logD); assay type: physicochemical
[2] = DMPK Wave1: aqueous solubility; assay type: physicochemical
[3] = DMPK Wave1: metabolic stability in human liver microsomes; assay type: in vitro ADME; conditions: human liver microsomes (HLM)
[4] = DMPK Wave1: metabolic stability in rat hepatocytes; assay type: in vitro ADME; conditions: rat hepatocytes (RH)

SMILES	logD [1]	solubility [2]	metabolic stability (in words) [3]	metabolic stability (in words) [4]	solubility ([2]; aqueous)
Cc1noc(C)c1S(=O)(=O)N1CCC2(CC1)CC2c1cnc2[nH]ccc2c1 (stereo not drawn) [Compound 78]	3.6	49 µM (≈ 18.9 µg/mL)	lower metabolic stability	lower metabolic stability	
COc1cc([C@H]2[C@@H]3CN(C(=O)Cc4c[nH]c5ccccc45)CC[C@@H]32)ccn1 [Compound 81]	3.1	100 µM (≈ 36.1 µg/mL)	lower metabolic stability	lower metabolic stability	
c1ncc(C2CC23CCN(c2ccc4c(c2)OCO4)CC3)cn1 (stereo not drawn) [Compound 82]	0.1	887 µM (≈ 274 µg/mL)	good metabolic stability	good metabolic stability	
CS(=O)(=O)N1CCC2CC21c1cncnc1 (stereo not drawn) [Compound 86]	-0.4	881 µM (≈ 211 µg/mL)			
CS(=O)(=O)N1CCC2(CC1)CC2c1cncnc1 (stereo not drawn) [Compound 87]	0.2	931 µM (≈ 249 µg/mL)			
CS(=O)(=O)N1CC2(CC2c2cncnc2)C1 (stereo not drawn) [Compound 88]	-0.6	913 µM (≈ 218 µg/mL)			
CS(=O)(=O)N1C2CCC1CC1(C2)CC1c1cncnc1 (stereo not drawn) [Compound 91]	0.5	> 981 µM			
CS(=O)(=O)N1CCC[C@@H]2[C@@H](c3cncnc3)[C@@H]21 [Compound 94]	0.1				823 µM (≈ 208 µg/mL)
C=CC(=O)N1C[C@H](Nc2ncnc3[nH]ccc23)CC[C@@H]1C [Ritlecitinib, 1-((2S,5R)-5-((7H-Pyrrolo[2,3-d]pyrimidin-4-yl)amino)-2-methylpiperidin-1-yl)prop-2-en-1-one, reference compound]	1.6				996 µM (≈ 284 µg/mL)
